Assay results: US10538567B2, “Compounds as peptidic trigonal GLP1/glucagon/GIP receptor agonists” (priority 2016, dated 2020)
Numbered stars: 1 amine (or outer) side, 2 acyl side, 3 side chain; on linkers, the order of the positions; unused ones are H or OH. Square brackets hold non-standard residues; d marks the D form. Side chains are listed from the residue outwards. Peptide text beside a SMILES is read from it. * marks the point of attachment. γGlu = O=C(O)[C@H](CCC(=O)[*:2])N[*:1]; Palmitoyl = CCCCCCCCCCCCCCCC(=O)*; AEEA = NCCOCCOCC(=O)O; Aib = CC(C)(N)C(=O)O

Experiments:
Type in all cases: physicochemical
[1] = Chemical stability assessment, UPLC-UV purity loss in buffer system A; conditions: 1 mg/ml, 25 mM acetate buffer pH 4.5 with m-cresol
Procedure: Prior to the chemical stability measurement of a peptide batch, its purity was determined through UPLC/MS. For stability testing the target concentration was 1 mg pure compound/ml. Therefore solutions from solid samples were prepared in a buffer system with a concentration of 1 mg/mL compound based on the previously determined % purity:
Chemical stability buffer system A) 25 mM acetate buffer pH 4.5, 3 mg/mL L-Methionine, 2.7 mg/mL m-cresol, 18 mg/mL Glycerol 85% Chemical stability buffer system B) 25 mM phosphate buffer pH 6.0, 3 mg/mL L-Methionine, 2.7 mg/mL m-cresol, 18 mg/mL Glycerol 85%
Peptide solutions were filtered through […] pore size and filled into aliquots under aseptic conditions. At starting point, UPLC-UV was performed by injection of 2 μl of the undiluted sample.
For chemical stability testing, aliquots were stored for 28 days at 5 and 40° C. After this time course the samples were centrifuged for 15 min at 2500 RCF. Then 2 μl of the undiluted supernatant were analysed with UPLC-UV.
The chemical stability was rated through the relative loss of purity calculated by the equation: [(purity at starting point)−(purity after 28 days at X° C.)]/(purity at starting point)]*100%
The purity is calculated as
[(peak area peptide)/(total peak area)]*100%
Peptide samples were prepared in Chemical stability buffer system A and the stability was assessed as described in Methods.

[2] = Dynamic light scattering, hydrodynamic radius as surrogate for DLS interaction parameter kD; conditions: for Delta Rh [nm] = Rh5 − Rh1: DLS buffer system A pH 4.5; for Rh1 [nm] c = 1 mg/ml / Rh5 [nm] c = 5 mg/ml: hydrodynamic radius, DLS buffer system A pH 4.5, method C, 25° C.
From the text: A monochromatic and coherent light beam (laser) is used to illuminate the liquid sample. Dynamic Light Scattering (DLS) measures light scattered from particles (1 nm≤radius≤1 μm) that undergo Brownian motion. This motion is induced by collisions between the particles and solvent molecules that themselves are moving due to their thermal energy. The diffusional motion of the particles results in temporal fluctuations of the scattered light [Pecora, R. Dynamic Light Scattering: Applications of Photon Correlation Spectroscopy, Plenum Press, 1985].
The scattered light intensity fluctuations are recorded and transformed into an autocorrelation function. By fitting the autocorrelation curve to an exponential function, the diffusion coefficient D of the particles in solution can be derived. The diffusion coefficient is then used to calculate the hydrodynamic radius Rh (or apparent Stokes radius) through the Stokes-Einstein equation assuming spherical particles. This calculation is defined in ISO 13321 and ISO 22412 [International Standard ISO13321 Methods for Determination of Particle Size Distribution Part 8: Photon Correlation Spectroscopy, International Organisation for Standardisation (ISO) 1996; International Standard ISO22412 Particle Size Analysis—Dynamic Light Scattering, International Organisation for Standardisation (ISO) 2008].
For every peptide solution, the hydrodynamic radius Rh and the diffusion constant D (related via the Stokes-Einstein equation) were determined as an average over triplicates. Both parameters were determined at different peptide concentrations (e.g., Rh1 and D1: 1 mg/ml and Rh5 and D5: 5 mg/ml) in the same buffer system. The difference of these parameters between low and high peptide concentration is a surrogate for the DLS interaction parameter kD. Rh5<Rh1 or D5>D1 correspond to kD>0 and therefore to repulsive inter-particle interactions that result in improved physical (or colloidal) stability.
DLS buffer system A) 25 mM acetate buffer pH 4.5, 3 mg/mL L-Methionine, 2.7 mg/mL m-cresol, 18 mg/mL Glycerol 85%
DLS Method C: DLS measurements were performed on a DynaPro Plate Reader II (Wyatt Technology, Santa Barbara, Calif., US) and using one of the following black, low volume, and non-treated plates: polystyrene 384 assay plate with clear bottom (Corning, N.Y., US), polystyrene 96 assay plate with clear bottom (Corning, N.Y., US), cyclo olefin polymer (COP) 384 assay plate with clear bottom (Aurora, Mont., US), or polystyrene 384 assay plate with clear bottom (Greiner Bio-One, Germany). The data were processed with the Dynamics software provided by Wyatt Technology. Parameters of the particle size distribution were determined with non-negatively constrained least squares (NNLS) methods using DynaLS algorithms. Measurements were taken at 25° C. with an 830 nm laser light source at an angle of 158°.
The hydrodynamic radius Rh of peptide samples was determined at different peptide concentrations (1 mg/ml and 5 mg/ml) in DLS buffer system A using DLS method C as described in Methods as surrogate for the DLS interaction parameter kD.

[3] = Thioflavin T (ThT) assay for physical stability (fibrillation); conditions: 3 mg/ml, 100 mM acetate pH 4.5 with m-cresol, 37° C. shaking
From the text: Low physical stability of a peptide solution may lead to amyloid fibril formation, which is observed as well-ordered, thread-like macromolecular structures in the sample, which eventually may lead to gel formation. Thioflavin T (ThT) is widely used to visualize and quantify the presence of misfolded protein aggregates. [Biancalana et al. (2010) Biochimica et Biophysica Acta. 1804 (7): 1405-1412]. […] Enzymol. 309, 274-284]. The time course for fibril formation often follows the characteristic shape of a sigmoidal curve and can be separated into three regions: a lag phase, a fast growth phase, and a plateau phase.
The typical fibril formation process starts with the lag phase in which the amount of partially folded peptide turned into fibrils is not significant enough to be detected. The lag-time corresponds to the time the critical mass of the nucleus is built. Afterwards, a drastic elongation phase follows and fibril concentration increases rapidly.
Investigations were carried out to determine fibrillation tendencies under stress conditions by shaking at 37° C. within Fluoroskan Ascent FL.
For the tests in Fluoroskan Ascent FL, 200 μL sample were placed into a 96 well mictrotiter plate PS, flat bottom, Greiner Fluotrac No. 655076. Plates were sealed with Scotch Tape (Quiagen). Samples were stressed by continuous cycles of 10 s shaking at 960 rpm and 50 s rest period at 37° C. The kinetic was monitored by measuring fluorescence intensity every 20 minutes.
Peptides were diluted in a buffer system to a final concentration of 3 mg/ml. 20 μL of a 10.1 mM ThT solution in H2O were added to 2 mL of peptide solution to receive a final concentration of 100 μM ThT. For each sample eight replicates were tested.
Tht buffer system A) 100 mM Acetate pH 4.5 including m-cresol (100 mM Natriumacetat trihydrat, pH adjustment using 2N CH3COOH, 2.7 mg/mL m-cresol) Tht buffer system B) 100 mM citrate buffer pH 6.0
Lag time in hours in Thioflavin T (ThT) assay of peptide samples was determined in ThT buffer system A as described in Methods.

Row | SMILES | Chemical stability [relative purity loss 28 days 40° C.] (%) at pH 4.5 [1] [%] | Delta Rh [nm] = Rh5 − Rh1 [2] [nm] | Rh1 [nm] c = 1 mg/ml [2] [nm] | Rh5 [nm] c = 5 mg/ml [2] [nm] | Lag time before increase [3] [h]
1 | CCCCCCCCCCCCCCCC(=O)NCCOCCOCC(=O)N[C@@H](CCC(=O)N[C@@H](CCC(=O)NCCCC[C@H](NC(=O)[C@H](CC(C)C)NC(=O)[C@H](CCCCN)NC(=O)[C@H](CO)NC(=O)[C@H](CC(C)C)NC(=O)[C@H](CC(=O)O)NC(=O)[C@H](CO)NC(=O)[C@@H](NC(=O)[C@H](Cc1ccccc1)NC(=O)[C@@H](NC(=O)CNC(=O)[C@H](Cc1c[nH]cn1)NC(=O)C(C)(C)NC(=O)[C@@H](N)Cc1c[nH]cn1)[C@@H](C)O)[C@@H](C)O)C(=O)N[C@@H](CCC(=O)O)C(=O)N[C@@H](CCC(=O)O)C(=O)N[C@@H](CCC(N)=O)C(=O)N[C@@H](CCCNC(=N)N)C(=O)N[C@@H](CCC(N)=O)C(=O)N[C@@H](CCCCN)C(=O)N[C@@H](CCC(=O)O)C(=O)N[C@@H](Cc1ccccc1)C(=O)N[C@H](C(=O)N[C@@H](CCC(=O)O)C(=O)N[C@@H](Cc1c[nH]c2ccccc12)C(=O)N[C@@H](CC(C)C)C(=O)N[C@@H](CCCCN)C(=O)N[C@@H](C)C(=O)NCC(=O)NCC(=O)N[C@@H](Cc1c[nH]cn1)C(=O)N1CCC[C@H]1C(=O)N[C@@H](CO)C(=O)NC(C)(C)C(=O)N[C@@H](CCCCN)C(=O)N1CCC[C@H]1C(=O)N1CCC[C@H]1C(=O)N1CCC[C@H]1C(=O)N[C@@H](CCCCN)C(N)=O)[C@@H](C)CC)C(=O)O)C(=O)O [SEQ ID NO: 14, H-Aib-H-G-T-F-T-S-D-L-S-K-L-K[gGlu-gGlu-AEEA-Palm]-E-E-Q-R-Q-K-E-F-I-E-W-L-K-A-G-G-H-P-S-Aib-K-P-P-P-K-NH2] (H-H[Aib]HGTFTSDLSKLK([γGlu-γGlu-AEEA-Palmitoyl])EEQRQKEFIEWLKAGGHPS[Aib]KPPPK-NH2) | 8.1 | −0.1 | 3.0 | 2.9 | >45
2 | CCCCCCCCCCCCCCCC(=O)NCCOCCOCC(=O)N[C@@H](CCC(=O)N[C@@H](CCC(=O)NCCCC[C@H](NC(=O)[C@H](CC(C)C)NC(=O)[C@H](CCCCN)NC(=O)[C@H](CO)NC(=O)[C@H](CC(C)C)NC(=O)[C@H](CC(=O)O)NC(=O)[C@H](CO)NC(=O)[C@@H](NC(=O)[C@H](Cc1ccccc1)NC(=O)[C@@H](NC(=O)CNC(=O)[C@H](Cc1c[nH]cn1)NC(=O)C(C)(C)NC(=O)[C@@H](N)Cc1c[nH]cn1)[C@@H](C)O)[C@@H](C)O)C(=O)N[C@@H](CCC(=O)O)C(=O)N[C@@H](CCC(=O)O)C(=O)N[C@@H](CCC(N)=O)C(=O)N[C@@H](CCCNC(=N)N)C(=O)N[C@@H](CCC(N)=O)C(=O)N[C@@H](CCCCN)C(=O)N[C@@H](CCC(=O)O)C(=O)N[C@@H](Cc1ccccc1)C(=O)N[C@H](C(=O)N[C@@H](CCC(=O)O)C(=O)N[C@@H](Cc1c[nH]c2ccccc12)C(=O)N[C@@H](CC(C)C)C(=O)N[C@@H](CCCCN)C(=O)N[C@@H](C)C(=O)N[C@H](C)C(=O)NCC(=O)N[C@@H](Cc1c[nH]cn1)C(=O)N1CCC[C@H]1C(=O)N[C@@H](CO)C(=O)NC(C)(C)C(=O)N[C@@H](CCCCN)C(=O)N1CCC[C@H]1C(=O)N1CCC[C@H]1C(=O)N1CCC[C@H]1C(=O)N[C@@H](CCCCN)C(N)=O)[C@@H](C)CC)C(=O)O)C(=O)O [SEQ ID NO: 15, H-Aib-H-G-T-F-T-S-D-L-S-K-L-K[gGlu-gGlu-AEEA-Palm]-E-E-Q-R-Q-K-E-F-1-E-W-L-K-A-dAla-G-H-P-S-Aib-K-P-P-P-K-NH2] (H-H[Aib]HGTFTSDLSKLK([γGlu-γGlu-AEEA-Palmitoyl])EEQRQKEFIEWLKA[dA]GHPS[Aib]KPPPK-NH2) | 7.2 | −0.4 | 3.0 | 2.6 | >45
